Tested on: monocytes
Test: M1/M2 marker expression in IL-4 treated monocytes (FACS)
Format: cell-based
Settings: IL4 24 hours then inhibitor 24 h, CD206, MHC-II, CD86, CD80
Experimental: FIG. 4. Effect of BLZ-945 and BLN101 (formulated as AK750) in repolarization of the M2-macrophage phenotype formed upon stimulation with IL-4 to the M1-macrophage phenotype. Monocytes were treated with IL-4 for 24 hours, followed by which they were treated with BLZ-945 or BLN101 (formulated as AK750) in basal DMEM media, and cells were collected at different time points. M1 and M2 markers expression on the macrophages and their isotype control was evaluated separately by FACS. Graph represents the representative M1/M2 ratio by taking into account the various individual M1 and M2 markers that were analyzed using FACS. Data are representative of 3 separate experiments.
Activity Studies of Compound of Formula I • Efficacy of BLN101 vs BLZ945 on the ability to inhibit CSF1R in vitro is studied. RAW264.7 cells are treated with BLZ945 (67 nM) or BLN101 (67 nM) for different time points, at the end of which the cells were exposed to CSF1 (10 ng/ml) for 20 min. The cells were then lysed and analyzed for phosphorylated CSF1R levels. […] Efficacy of BLN101 (in formulation AK750) vs BLZ945 on increase in iNOS expression in vitro is studied. […] At different time-points, the cells are harvested and analyzed the population for M1 (MHCII+, CD86+, CD80+) or M2 (CD206+) markers using fluorescence activated cell sorting (FIG. 5d). […]

In the case of `CNC(=O)c1cc(Oc2ccc3nc(NC4CCCC[C@H]4OC(=O)CCC(=O)O[C@H]4CC[C@@]5(C)C(=CC[C@H]6[C@@H]7CC[C@H](C(C)CCCC(C)C)[C@@]7(C)CC[C@@H]65)C4)sc3c2)ccn1` (stereo in doubt) [BLN101], the “M1 and M2 macrophage markers” value is reported as “significantly increases the markers associated with M1 macrophages while reducing the M2 macrophage markers”.

From patent US10736968B2, “Cellular signalling inhibitors, their formulations and methods thereof” (INVICTUS ONCOLOGY PVT. LTD., priority 2016, dated 2020)
